In patent US20210353639A1, “MAST1 AND USES FOR DIAGNOSING AND TREATING CANCER” (EMORY UNIVERSITY, priority 2018, published 2021):
“Also recorded” adds a separate entry of the source.

How the values were obtained:
[1] = molecular target: T1, MAST1 (Homo sapiens, UniProt Q9Y2H9); experiment: MAST1 in vitro kinase assay (purified GST-MAST1, ADP-Glo); type: biochemical; conditions: 10 μM drugs incubated with purified GST-MAST1
T1 construct: GST; made in house; host or cells: 293T
Protocol: GST-MAST1 variants were enriched from 293T and kinase activity was assessed by ADP-Glo Kinase assay using myelin basic protein (MBP) as a substrate.
10 μM drugs were incubated with purified GST-MAST1 and applied to the in vitro kinase assay.
FIG. 7G show data on the effect of lestaurtinib on MAST1 activity at a range of ATP concentrations.

[2] = system: TKO-002; experiment: Combination cell viability, SCLC patient-derived tumor TKO-002; type: cell-based, human; conditions: combination of lestaurtinib and cisplatin, platinum-refractory SCLC TKO-002
Text: CI value for synergistic effect is shown.

[3] = system: KB-3-1 cells; experiment: Combination cell viability, Combination Index by CompuSyn, KB-3-1; type: cell-based, human; conditions: lestaurtinib in combination with cisplatin
Text: (§1) Combination Index (CI) value for cell viability was obtained by CompuSyn.

[4] = Tolerability of lestaurtinib and cisplatin dosage (body weight, histopathology, hematopoietic properties); type: in vivo, mice; conditions: 20 mg/kg lestaurtinib and 5 mg/kg cisplatin
[5] = Cisplatin sensitivity / cell viability with MAST1 inhibitors in KB-3-1 cells; type: cell-based; conditions: human, read-out: attenuation of cell viability when treated alone
[6] = system: 212LN cells; experiment: Combination cell viability, Combination Index by CompuSyn, 212LN; type: cell-based, human; conditions: lestaurtinib in combination with cisplatin
Text: as §1

[7] = molecular target: T2, MEK1-cRaf complex (Homo sapiens, UniProt P04049+Q02750); experiment: In vitro MEK1-cRaf dissociation, purified complex from KB-3-1 cells; type: biochemical
T2 construct: endogenous in cells; host or cells: KB-3-1
Text: Samples were collected at different time points and subjected to immunoblotting. Density analysis of relative amount of cRaf bound to MEK1 from three biological replicates are shown.

[8] = molecular target: T3, cRaf-MEK1 (Homo sapiens, UniProt P04049+Q02750); experiment: cRaf-MEK1 dissociation in cancer cells (MEK1 immunoprecipitation); type: cell-based
T3 construct: endogenous in cells; host or cells: KB-3-1 and other cancer cell lines
Protocol: KB-3-1 cells were treated with different compounds as indicated, followed by MEK1 immunoprecipitation and immunoblotting.

[9] = system: cancer cells
[10] = system: Lung PDX (Pt-9 tumor); experiment: Tumor growth in lung PDX mice (Pt-9 tumor), lestaurtinib or trametinib with cisplatin; type: in vivo; conditions: in combination with cisplatin (5 mg/kg i.p. twice a week); lestaurtinib 20 mg/kg i.p. 5 times a week, trametinib 1 mg/kg oral daily

T1 sequence (Q9Y2H9 whole entry): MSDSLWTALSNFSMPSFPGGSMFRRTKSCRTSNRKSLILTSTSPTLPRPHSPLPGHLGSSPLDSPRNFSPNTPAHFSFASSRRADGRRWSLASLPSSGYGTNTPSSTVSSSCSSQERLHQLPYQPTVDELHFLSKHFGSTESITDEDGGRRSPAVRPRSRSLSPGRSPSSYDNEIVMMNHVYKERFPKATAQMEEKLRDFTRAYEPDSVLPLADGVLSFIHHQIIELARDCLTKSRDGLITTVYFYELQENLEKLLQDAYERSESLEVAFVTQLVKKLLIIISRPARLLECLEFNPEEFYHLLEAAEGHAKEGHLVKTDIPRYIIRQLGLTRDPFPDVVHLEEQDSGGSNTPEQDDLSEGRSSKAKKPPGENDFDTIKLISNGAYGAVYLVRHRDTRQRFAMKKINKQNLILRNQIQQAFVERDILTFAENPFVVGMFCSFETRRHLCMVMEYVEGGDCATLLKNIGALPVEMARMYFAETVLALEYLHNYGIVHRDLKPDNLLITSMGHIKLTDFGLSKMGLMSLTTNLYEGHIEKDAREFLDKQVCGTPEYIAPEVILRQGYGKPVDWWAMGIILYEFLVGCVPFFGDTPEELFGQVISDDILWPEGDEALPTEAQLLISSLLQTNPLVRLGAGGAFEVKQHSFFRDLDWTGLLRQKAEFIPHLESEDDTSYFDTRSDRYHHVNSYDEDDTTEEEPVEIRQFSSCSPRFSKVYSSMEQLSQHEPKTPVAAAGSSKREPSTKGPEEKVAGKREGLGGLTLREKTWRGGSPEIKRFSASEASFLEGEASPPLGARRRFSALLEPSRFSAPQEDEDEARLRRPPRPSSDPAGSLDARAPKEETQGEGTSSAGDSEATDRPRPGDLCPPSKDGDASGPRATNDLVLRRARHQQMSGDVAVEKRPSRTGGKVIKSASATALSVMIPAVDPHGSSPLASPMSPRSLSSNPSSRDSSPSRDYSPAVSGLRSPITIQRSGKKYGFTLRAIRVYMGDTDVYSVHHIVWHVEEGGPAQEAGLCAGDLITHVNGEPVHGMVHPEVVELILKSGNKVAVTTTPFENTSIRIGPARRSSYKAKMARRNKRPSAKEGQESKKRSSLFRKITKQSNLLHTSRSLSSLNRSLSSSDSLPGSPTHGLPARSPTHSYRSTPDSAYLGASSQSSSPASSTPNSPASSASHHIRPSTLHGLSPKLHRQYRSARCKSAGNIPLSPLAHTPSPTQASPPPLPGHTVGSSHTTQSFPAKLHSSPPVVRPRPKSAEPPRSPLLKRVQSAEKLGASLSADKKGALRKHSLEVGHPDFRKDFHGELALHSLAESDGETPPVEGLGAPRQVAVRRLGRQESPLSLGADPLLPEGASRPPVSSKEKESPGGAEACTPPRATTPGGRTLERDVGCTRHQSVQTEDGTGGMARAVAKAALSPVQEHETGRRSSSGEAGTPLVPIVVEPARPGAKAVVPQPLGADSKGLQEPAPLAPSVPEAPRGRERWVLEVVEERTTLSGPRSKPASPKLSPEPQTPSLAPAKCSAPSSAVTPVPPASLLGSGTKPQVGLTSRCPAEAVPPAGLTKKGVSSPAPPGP
T3 sequence (Q02750 whole entry): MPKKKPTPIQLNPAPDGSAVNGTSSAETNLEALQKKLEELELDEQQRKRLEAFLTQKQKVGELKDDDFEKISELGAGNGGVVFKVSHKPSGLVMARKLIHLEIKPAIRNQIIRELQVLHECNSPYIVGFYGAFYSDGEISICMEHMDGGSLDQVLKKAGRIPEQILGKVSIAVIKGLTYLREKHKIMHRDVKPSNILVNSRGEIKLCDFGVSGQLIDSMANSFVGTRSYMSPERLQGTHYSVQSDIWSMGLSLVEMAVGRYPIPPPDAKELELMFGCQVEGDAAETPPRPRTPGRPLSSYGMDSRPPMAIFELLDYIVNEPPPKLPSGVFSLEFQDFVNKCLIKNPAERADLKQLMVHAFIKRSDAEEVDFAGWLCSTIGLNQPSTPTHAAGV
T3 sequence (P04049 whole entry): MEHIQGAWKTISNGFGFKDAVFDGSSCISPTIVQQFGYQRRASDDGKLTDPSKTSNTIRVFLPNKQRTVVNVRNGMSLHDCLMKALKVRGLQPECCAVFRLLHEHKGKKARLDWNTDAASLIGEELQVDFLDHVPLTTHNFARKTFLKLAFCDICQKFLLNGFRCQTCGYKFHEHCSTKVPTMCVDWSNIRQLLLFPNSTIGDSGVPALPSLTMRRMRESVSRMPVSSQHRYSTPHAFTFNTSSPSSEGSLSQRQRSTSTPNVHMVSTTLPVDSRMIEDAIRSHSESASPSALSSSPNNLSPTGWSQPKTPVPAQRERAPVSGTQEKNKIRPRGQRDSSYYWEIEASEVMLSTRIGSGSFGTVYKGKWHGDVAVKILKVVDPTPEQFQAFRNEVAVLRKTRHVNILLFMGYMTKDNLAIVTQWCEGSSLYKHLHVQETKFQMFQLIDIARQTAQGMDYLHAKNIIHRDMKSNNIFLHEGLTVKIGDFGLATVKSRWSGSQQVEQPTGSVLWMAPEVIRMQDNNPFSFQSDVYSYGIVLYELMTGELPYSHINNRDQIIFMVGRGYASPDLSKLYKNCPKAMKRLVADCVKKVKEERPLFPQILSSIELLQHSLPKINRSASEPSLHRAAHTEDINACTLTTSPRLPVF
T2 sequence (Q02750 whole entry): as the sequence (Q02750 whole entry) above
T2 sequence (P04049 whole entry): as the sequence (P04049 whole entry) above

CN1CCN(c2ccc3[nH]c(-c4c(N)c5c(F)cccc5[nH]c4=O)nc3c2)CC1 [dovitinib, 4-amino-5-fluoro-3-(5-(4-methylpiperazin-1-yl)-1H-benzimidazol-2-yl)quinolin-2(1H)-one]
MAST1 activity in in vitro MAST1 kinase assay [1]: inhibited MAST1 activity in vitro

Cc1[nH]c(C=C2C(=O)Nc3ccc(F)cc32)c(C)c1C(=O)NCC(O)CN1CCOCC1 (stereo not drawn) [SU14813, 5-((5-fluoro-2-oxo-1,2-dihydro-3H-indol-3-ylidene)methyl)-N-(2-hydroxy-3-morpholin-4-ylpropyl)-2,4-dimethyl-1H-pyrrole-3-carboxamide]
MAST1 activity in in vitro MAST1 kinase assay [1]: inhibited MAST1 activity in vitro

C[C@]12O[C@H](C[C@]1(O)CO)n1c3ccccc3c3c4c(c5c6ccccc6n2c5c31)CNC4=O [lestaurtinib, 7-hydroxy-7-(hydroxymethyl)-8-methyl-5,6,7,8,13,14-hexahydro-15H-16-oxa-4b,8a,14-triaza-5,8-methanodibenzo[b,h]cycloocta[jkl]cyclopenta[e]-as-indacen-15-one]
CI value for cell viability [2]: 0.57
combination index (CI) for cell viability [3]: 0.256
changes in body weight, histopathology, or hematopoietic properties [4]: did not induce significant changes
cytotoxicity at 48 h, 100 nM [5]: < 20%
combination index (CI) for cell viability [6]: 0.257

N.N.[Cl][Pt][Cl] [cisplatin]
time to dissociation of cRaf from MEK1 ([7]; 5 μg/ml cisplatin, time course): within one hour
dissociation of cRaf from MEK1 in vitro ([7]; purified MEK1-cRaf complex, cisplatin 0-5 μg/ml for 2 hours): dissociates cRaf from MEK1 in a dose-dependent manner
dissociation of cRaf from MEK1 in diverse types of cancer cells ([8]; 5 μg/ml cisplatin for 24 hours): dissociates cRaf

N#CC(=C(/N)Sc1ccccc1N)/C(C#N)=C(\N)Sc1ccccc1N [U0126]
sensitization of cancer cells to cisplatin by MEK1 inhibitor [9]: sensitized cancer cells to cisplatin

CC(=O)Nc1cccc(-n2c(=O)n(C3CC3)c(=O)c3c(Nc4ccc(I)cc4F)n(C)c(=O)c(C)c32)c1 [trametinib, N-[3-[3-cyclopropyl-5-[(2-fluoro-4-iodophenyl)amino]-3,4,6,7-tetrahydro-6,8-dimethyl-2,4,7-trioxopyrido[4,3-d]pyrimidin-1(2H)-yl]phenyl]acetamide]
PDX tumor growth and proliferation [10]: attenuated PDX tumor growth and proliferation; also recorded: sensitizes cancer cells to cisplatin

CC(=O)O[C@H]1C(=O)[C@@]2(C)[C@H]([C@H](OC(=O)c3ccccc3)[C@]3(O)C[C@H](OC(=O)[C@H](O)[C@@H](NC(=O)c4ccccc4)c4ccccc4)C(C)=C1C3(C)C)[C@]1(OC(C)=O)CO[C@@H]1C[C@@H]2O [paclitaxel]
dissociation of cRaf-MEK1 induced by DNA damaging agents and cytotoxic drugs ([8]; KB-3-1 cells): not

CN[C@@H]1C[C@H]2O[C@@](C)([C@@H]1OC)n1c3ccccc3c3c4c(c5c6ccccc6n2c5c31)C(=O)NC4 [staurosporine, 6-methoxy-5-methyl-7-methylamino-6,7,8,9,15,16-hexahydro-5H,14H-5,9-epoxy-4b,9a,15-triazadibenzo[b,h]cyclonona[1,2,3,4-jkl]cyclopenta[e]-as-indacen-14-one]
MAST1 activity in in vitro MAST1 kinase assay [1]: inhibited MAST1 activity in vitro

COc1cc(Nc2c(C#N)cnc3cc(OCCCN4CCN(C)CC4)c(OC)cc23)c(Cl)cc1Cl [bosutinib, 4-[(2,4-Dichloro-5-methoxyphenyl)amino]-6-methoxy-7-[3-(4-methyl-1-piperazinyl)propoxy]-3-quinolinecarbonitrile]
MAST1 activity in in vitro MAST1 kinase assay [1]: inhibited MAST1 activity in vitro
